Measurements reported in patent US6603023B2 (priority 1996, dated 2003).
Where two headings read alike, the source gives them in different places. Marks after values point to notes of the source that are not given here.

How the values were obtained:
[1] = test system: CCRF-CEM human T-cell acute lymphoblastic leukemia cell line; experiment: XTT cytotoxicity (cell growth inhibition), CCRF-CEM
Method in brief: (§1)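 Leukemia cells (CCRF-CEM, P388/0 and drug-resistant sublines kept under selecting agent) grew in RPMI-1640 with 10% FBS at 37 °C, 5% CO2, seeded at 5×10^4 cells/mL. After 72 h drug exposure, viability was read by XTT with 0.025 mM PMS-XTT, 4 h at 37 °C, absorbance 450/630 nm.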

[2] = test system: CCRF-CEM/Taxol®; experiment: cells; format: cell-based, human
Method in brief: as §1

[3] = test system: CCRF-CEM/VBL100; experiment: cells; format: cell-based, human
Method in brief: as §1

[4] = test system: CCRF-CEM/VM1; experiment: cells; format: cell-based, human
Method in brief: as §1

[5] = test system: DC-3F hamster lung fibroblast cell line; experiment: SRB cytotoxicity, DC-3F; format: cell-based; details: read-out: IC50
Description: (§2) The DC-3F hamster lung fibroblast cell line and its actinomycin D-selected sublines (DC-3F/ADII and DC-3F/ADX) were obtained from the Memorial Sloan-Kettering Cancer Center (MSKCC).
(§3) The drug-resistant cell lines were continuously cultured in the presence of the selecting agent, AD, DX, VBL or VM to maintain the drug resistant phenotypes. […] All cells were cultured in RPMI 1640-10% FBS at 37° C. 5% CO2 (see below).
(§4) The cytotoxicity of the drug toward the monolayer cell cultures (such as DC-3F, MCF-7, SK-N-As and sublines) was determined in 96-well microtiter plates by the SRB method as described by Skehan and co-workers (Skehan, P., et al., J. Natl. Cancer Inst. 1990, 82, 1107-1112) for measuring the cellular protein content. Cultures were fixed with trichloroacetic acid and then stained for 30 min with 0.4% suforhodamine B dissolved in 1% acetic acid. Unbound dye was removed by acetic acid washes, and the protein-bound dye was extracted with an unbuffered Tris base (tris(hydroxy-methyl)aminomethane) for determination of absorbance at 570 nm in a 96-well microtiter plate reader. The experiments were carried out in duplicate. Each run entailed six to seven concentrations of the tested drugs. Data were analyzed with the median-effect plot (Chou, T.-C. & Talalay, P. T. (1984) Adv. Enzyme Regul. 22, 27-55) using a previously described computer program (Chou, J., & Chou T.-C. 1987, Dose-effect analysis with microcomputers: Quantitation of ED50, synergism, antagonism, low-dose risk, reception-ligand binding and enzyme kinetics, IBM-PC software and manual, Biosoft, Cambridge, U.K.).

[6] = test system: DC-3F/ADX; experiment: cells; format: cell-based, hamster; details: for IC50: read-out: IC50
Description: as §2, §3, §4
Concerning Table 3, experiments were carried out using the cell lines DC-3F (parent hamster lung cells), DC-3F/ADII (moderate multidrug-resistant (MDR) cells) and DC-3F/ADX (very strong MDR cells).

[7] = test system: murine leukemic P388/0; experiment: XTT cytotoxicity, P388/0; format: cell-based; details: Table 1C; XTT, 72 h; read-out: IC50
Description: as §2, §3
(§5) The cells were cultured at an initial density of 5×10^4 cells/mL. They were maintained in a 5% CO2-humidified atmosphere at 37° C. in RPMI-1640 medium (GIBCO-BRL, Gaithersburg, Md.) containing penicillin (100 U/mL), streptomycin ([…]) (GIBCO-BRL) and 10% heat inactivate fetal bovine serum. Culture for cell suspension (such as for CCRF-CEM, P388 and sublines), were performed by the XTT-microculture tetrazonium method (Scudiero, D. A. et al., Cancer Res. 1988, 48, 4827-4833) in duplicate in 96-well microtiter plates.
(§6) 2′,3′-Bis(methoxy-4-nitro-5-sufophenyl)-5-[(phenylamino)carbonyl]2H-tetrazolium hyudroxide (XTT) was prepared at 1 mg/mL in prewarmed (37° C.) medium without serum. Phenazine methosulfate (PMS) and fresh XTT were mixed together to obtain 0.025 mM PMS-XTT solution (25 μL of the stock 5 mM PMS was added per 5 mL of 1 mg/mL XTT). Following a 72 h incubation, 50 μL of the assay aliquots were added to each well of the cell culture. After incubation at 37° C. for 4 h, absorbance at 450 nm and 630 nm was measured with a microplate reader (EL340, Bio-Tek Instruments, Inc., Winooski, Vt.).

[8] = test system: P388/Adr; experiment: cells; format: cell-based, murine; details: Table 1C
Description: as §3, §5, §6

[9] = test system: human neuroblastoma SK-N-As; experiment: SRB cytotoxicity, SK-N-As; format: cell-based; details: Table 1C; SRB, 72 h; read-out: IC50
Description: as §2, §3, §4

[10] = test system: SK-N-FI; experiment: cells; format: cell-based, human; details: Table 1C
Description: as §3, §4

[11] = test system: MCF-7; experiment: SRB cytotoxicity, MCF-7; format: cell-based, human; details: Table 1C; SRB, 72 h; read-out: IC50
Description: as §4

[12] = test system: MCF-7/Adr; experiment: cells; format: cell-based, human; details: Table 1C
Description: Cultures were fixed with trichloroacetic acid and then stained for 30 min with 0.4% suforhodamine B dissolved in 1% acetic acid. Unbound dye was removed by acetic acid washes, and the protein-bound dye was extracted with an unbuffered Tris base (tris(hydroxy-methyl)aminomethane) for determination of absorbance at 570 nm in a 96-well microtiter plate reader. The experiments were carried out in duplicate. Each run entailed six to seven concentrations of the tested drugs.

[13] = Table 1A, XTT, 72 h, read-out: IC50

**Q.** Which IC50 [1] does the source give for `C/C(=C\c1csc(C)n1)[C@@H]1C[C@@H]2O[C@@H]2CCC[C@H](C)[C@H](O)[C@@H](C)C(=O)C(C)(C)[C@@H](O)CC(=O)O1` [Epothilone A, epothilone A] here?
**A.** Its IC50 is 2.7 nM.

**Q.** What about the IC50 ([1]; Table 1, XTT) of the same compound?
**A.** The IC50 was 3 nM.

**Q.** What about the IC50 ([1]; Table 7, CEM) of the same compound?
**A.** Its IC50 is 2.9 nM.

**Q.** And the IC50 ([1]; read-out: IC50 (A), Table 2A, parent cell line)?
**A.** The IC50 was 3.2 nM.

**Q.** And the “(C)/(A) IC50 ratio” value [2]?
**A.** The value was 1.4.

**Q.** And the IC50 [2, 13]?
**A.** Its IC50 is 3.7 nM.

**Q.** What about the “(B)/(A) ratio (fold resistance >1, collateral sensitivity <1)” value [3] of the same compound?
**A.** Its value is “(7.5)^a”.

**Q.** And the “fold resistance (cross-resistance) vs parent CCRF-CEM” value ([3]; CCRF-CEM/VBL100 MDR cells)?
**A.** The value was 8 fold.

**Q.** And the IC50 ([3]; Table 1, XTT, read-out: IC50)?
**A.** The IC50 was 20 nM.

**Q.** And the “(B)/(A) IC50 ratio” value ([3]; Table 1A, CCRF-CEM/VBL100 vs CCRF-CEM)?
**A.** The value was 7.4.

**Q.** And the IC50 [3, 13]?
**A.** The IC50 was 20 nM.

**Q.** And the IC50 ([3]; Table 2A, MDR cell line, read-out: IC50 (B))?
**A.** The IC50 was 24 nM.

**Q.** What about the IC50 ([3]; Table 7, CEM/VBL, read-out: IC50) of the same compound?
**A.** Its IC50 is 20.3 nM.

**Q.** And the IC50 ([3]; read-out: IC50)?
**A.** Its IC50 is 20 nM.

**Q.** And the “(C)/(A) ratio (fold resistance >1, collateral sensitivity <1)” value [4]?
**A.** Its value is “(1.06)^a”.

**Q.** What about the IC50 ([4]; Table 1, XTT, read-out: IC50) of the same compound?
**A.** Its IC50 is 3 nM.

**Q.** What about the “(D)/(A) IC50 ratio” value ([4]; Table 1A, CCRF-CEM/VM1 vs CCRF-CEM) of the same compound?
**A.** Its value is 2.3.

**Q.** And the IC50 [4, 13]?
**A.** The IC50 was 6.1 nM.

**Q.** And the IC50 ([4]; Table 2A, Topo II gene mutated cell line, read-out: IC50 (C))?
**A.** Its IC50 is 3.4 nM.

**Q.** And the IC50 ([5]; Table 1C, SRB, 72 h)?
**A.** The IC50 was 3.7 nM.

**Q.** And the IC50 ([5]; relative potency ordering)?
**A.** The IC50 was 3.6 nM.

**Q.** And the “folds of resistance (IC50 ratio vs parent cell line)” value ([6]; Table 1C, DC-3F/ADX vs DC-3F)?
**A.** The value was “(14.5x)#”.

**Q.** What about the IC50 ([6]; Table 1C, SRB, 72 h) of the same compound?
**A.** The IC50 was 53 nM.

**Q.** And the IC50 ([6]; relative potency ordering)?
**A.** Its IC50 is 60 nM.

**Q.** And the IC50 [7]?
**A.** Its IC50 is 1.8 nM.

**Q.** And the “folds of resistance (IC50 ratio vs parent cell line)” value ([8]; P388/Adr vs P388/O)?
**A.** The value was “(5.3x)#”.

**Q.** And the IC50 ([8]; XTT, 72 h, read-out: IC50)?
**A.** Its IC50 is 1 nM.

**Q.** And the IC50 [9]?
**A.** Its IC50 is 12 nM.

**Q.** What about the “folds of resistance (IC50 ratio vs parent cell line)” value ([10]; SK-N-FI vs SK-N-As) of the same compound?
**A.** Its value is “(1.9x)#”.

**Q.** What about the IC50 ([10]; SRB, 72 h, read-out: IC50) of the same compound?
**A.** The IC50 was 23 nM.

**Q.** What about the IC50 [11] of the same compound?
**A.** Its IC50 is 3 nM.

**Q.** What about the “folds of resistance (IC50 ratio vs parent cell line)” value ([12]; MCF-7/Adr vs MCF-7) of the same compound?
**A.** The value was “(3.1x)#”.

**Q.** What about the IC50 ([12]; SRB, 72 h, read-out: IC50) of the same compound?
**A.** The IC50 was 9.4 nM.
